From US11207312B2, “Metallo-beta-lactamase inhibitors and methods of use thereof” (priority 2017, dated 2021)

Experiments:
[1] = molecular target: VIM-1 (Pseudomonas aeruginosa (strain ATCC 15692 / DSM 22644 / CIP 104116 / JCM 14847 / LMG 12228 / 1C / PRS 101 / PAO1), UniProt A0A0F7KYQ8); assay: biochemical; settings: CCF2-FA fluorescence assay, 2 hours at 25° C.; read-out: VIM1 IC50
Method: (§1) The Class B enzyme activities were measured in the presence of the test inhibitor in a fluorescence assay against a commercially available substrate consisting of a cephalosporin core linking 7-hydroxycoumarin to fluorescein (CCF2-FA). The enzyme (NDM-1, IMP-1 or VIM-1) and the substrate were diluted in 100 mM KH2PO4 buffer (pH 7) containing 0.005% Tween-20 and 10 μM ZnSO4. In the assay, the final concentration of enzyme was 1 pM, 2 pM and 30 pM for NDM-1, IMP-1 and VIM-1, respectively, and the final concentration of CCF2-FA was 1.25 μM. The test inhibitor was dissolved in dimethylsulfoxide and diluted 1:50 in the assay, resulting in a final concentration range of 20 μM to 0.00063 μM. In a 384-well microplate, the test inhibitor was incubated with the metallo-β-lactamase enzyme and the substrate for 2 hours at 25° C. Fluorescence at 460 nm following excitation at 405 nm was measured. The IC50 value was determined from semi-logarithmic plots of enzyme inhibition versus inhibitor concentration, with a curve generated using a 4-parameter fit.

[2] = molecular target: IMP-1 (Serratia marcescens, UniProt P52699); assay: biochemical; settings: CCF2-FA fluorescence assay, 2 hours at 25° C.; read-out: IMP1 IC50
Method: as §1

[3] = molecular target: NDM-1 (Klebsiella pneumoniae, UniProt C7C422); assay: biochemical; assay type: biochemical; settings: CCF2-FA fluorescence assay, 2 hours at 25° C.
Method: as §1

[4] = molecular target: VIM-2 (Escherichia coli, UniProt Q5U7L7); assay: biochemical; settings: CCF2-FA fluorescence assay; read-out: VIM2 IC50
[5] = system: P. aeruginosa MB9798 (efflux+, IMP-1 plasmid); settings: for MB9798 MITC95 P. aeruginosa uM Efflux WT: efflux + (MB9798) strain, imipenem at 2 μg/mL, in the presence of a class A, C, D serine β-lactamase inhibitor closely related to relebactam; for Efflux ratio: fold difference between efflux+ (MB9798) and efflux− (MB9799) strains
Text: (§2) The strain background is Pseudomonas aeruginosa PAO1. A wild-type (M135919) and an isogenic strain in which multiple efflux pumps have been disrupted genetically were used. The MBL IMP-1, obtained from a clinical isolate was introduced into the strain pair by the following process:
(§3) The plasmid DNA was transformed into parental MB5919 (oprD+, efflux+, inducible AmpC) and MB5890 (oprD+, efflux−, inducible AmpC) isogenic strains by electroporation.
(§4) The strain set was then used as a pair to determine the effect of metallo-β-lactamase inhibitors of Formula I on the MIC of imipenem and/or ceftazidime. A fixed concentration of antibiotic is included in standard microbroth MIC tests, usually at the CLSI breakpoint concentration, A fixed amount of a class A/C beta-lactamase inhibitor is also included to inhibit the resident Pseudomonas AmpC enzyme. A serial titration of the metallo-β-lactamase inhibitor was included and the concentration of metallo-β-lactamase inhibitor which restores susceptibility of the strain to the included antibiotic was recorded. That concentration of metallo-β-lactamase inhibitor was then compared between the two strains to determine the fold difference between the efflux+(MB9798) and efflux−(MI39799) strains, which indicates the extent to which the MBLi is subject to efflux.

[6] = system: Klebsiella pneumoniae expressing VIM-1 (IHMA599644); assay type: cell-based; settings: with imipenem 1 μg/ml; 95% inhibition of bacterial growth
Method: (§5) The bacterial strains tested included the clinical strains Escherichia coil expressing NDM-1 (CLB30005, CLB30016), Serratia marcescens expressing IMP-1 (CL5741), and Klebsiella pneumoniae expressing VIM-1 (H-LMA599644). Inhibitor activity was measured in the presence and absence of imipenem in a 384-well microplate.
(§6) The clinical strains CLB30016, CL5741 and IHMA599644 were grown on trypticase soy agar containing 5% sheep's blood. The bacteria on agar plates were incubated at 35° C. with humidity overnight. The following day, individual colonies from each clinical strain were picked and resuspended in 5 ml saline to attain an OD600 of […], for CLB30016, C15741 and IHMA599644, respectively. These were further diluted 1:100 into 1.1× CAMHB and used to inoculate the test wells as described below.
(§7) Imipenem in 10 mM 3-(N-morpholino)propanesulfonic acid (MOPS, pH 7) was stored in single use aliquots at −80° C. […] On the day of the assay, 4 μl of antibiotic was added to 45 μl of bacteria followed by 1 μl of test compound and mixed by pipetting and with an orbital shaker. The concentration of antibiotic used in the assay was 1 μg/ml. Microplates were covered and incubated at 35° C. for 22 hours to 24 hours. At the end of the incubation, absorbance was determined using a spectrophotometer. The synergistic concentration of MBLI was determined by identifying the lowest concentration of test compound in the presence of a given concentration of antibiotic that was required to inhibit 95% of the growth of the bacteria. The results for Examples 1-209 are reported in Table 1, expressed as the concentration of compound that potentiated the action of antibiotic (imipenem) affecting 95% inhibition of bacterial growth (MITC95).

[7] = system: Escherichia coli expressing NDM-1 (CLB30016); assay type: cell-based; settings: with imipenem 1 μg/ml; 95% inhibition of bacterial growth
Method: as §5, §6, §7

[8] = system: Serratia marcescens expressing IMP-1 (CL5741); assay type: cell-based; settings: with imipenem 1 μg/ml; 95% inhibition of bacterial growth
Method: as §5, §6, §7

[9] = system: P. aeruginosa MB9799 (efflux-, IMP-1 plasmid); assay type: cell-based, Pseudomonas aeruginosa; settings: efflux − (MB9799) strain; imipenem at 2 μg/mL; in the presence of a class A, C, D serine β-lactamase inhibitor closely related to relebactam
Text: as §2, §3, §4

Chain of IMP-1 (P52699 whole entry, looked up, species assumed): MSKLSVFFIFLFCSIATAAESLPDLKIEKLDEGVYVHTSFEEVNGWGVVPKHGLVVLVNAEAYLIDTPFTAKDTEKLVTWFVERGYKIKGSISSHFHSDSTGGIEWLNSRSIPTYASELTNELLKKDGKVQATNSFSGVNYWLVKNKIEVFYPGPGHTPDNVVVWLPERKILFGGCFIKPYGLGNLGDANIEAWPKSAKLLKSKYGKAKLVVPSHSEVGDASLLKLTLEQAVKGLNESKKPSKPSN
Chain of NDM-1 (C7C422 whole entry, looked up, species assumed): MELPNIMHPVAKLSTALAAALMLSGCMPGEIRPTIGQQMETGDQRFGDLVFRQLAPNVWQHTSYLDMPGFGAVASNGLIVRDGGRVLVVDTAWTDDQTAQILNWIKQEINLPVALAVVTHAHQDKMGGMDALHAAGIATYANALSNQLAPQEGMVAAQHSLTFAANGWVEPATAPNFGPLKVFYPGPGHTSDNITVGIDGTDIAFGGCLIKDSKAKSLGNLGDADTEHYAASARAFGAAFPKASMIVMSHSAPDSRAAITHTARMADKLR

Row | SMILES | IC50 [1] | IC50 [2] | IC50 [3] | IC50 [4] | MB9798 MITC95 P. aeruginosa uM Efflux WT [5] | Efflux ratio [5] | IHMA599644 K. pneumoniae MITC95 VIM [6] | CLB30016 E. coli MITC95 NDM [7] | CL5741 S. marcescens MITC95 IMP [8] | MB9799 MITC95 P. aeruginosa uM Efflux Mutant [9]
1 | NC[C@@H](O)CNS(=O)(=O)c1ccc(N2CC[C@@H](CN)C2)c(-c2nn[nH]n2)c1S(N)(=O)=O [Example 121, N1-((R)-3-amino-2-hydroxypropyl)-4-((S)-3-(aminomethyl)pyrrolidin-1-yl)-3-(2H-tetrazol-5-yl)benzene-1,2-disulfonamide] | 4.54 nM | 66.8 nM | 58.7 nM | 30.4 nM | 6.25 µM | 2.00 | 0.78 µM | 1.56 µM | 1.56 µM | 3.13 µM
2 | NS(=O)(=O)c1c(S(=O)(=O)N[C@@H]2CCNC2)ccc(N2CCCC(C(=O)NCCCO)C2)c1-c1nnn[nH]1 (stereo partly drawn) [Example 108, N-(3-hydroxypropyl)-1-{4-[(3R)-pyrrolidin-3-ylsulfamoyl]-3-sulfamoyl-2-(1H-tetrazol-5-yl)phenyl}piperidine-3-carboxamide] | 0.5 nM | 2.39 nM | 0.71 nM | 1.77 nM | 12.50 µM | 2.00 | 12.50 µM | 6.25 µM | 12.50 µM | 6.25 µM
3 | NC[C@@H](O)CNS(=O)(=O)c1ccc(N2CCN(CCCO)CC2)c(-c2nnn[nH]2)c1S(N)(=O)=O [Example 40, (R)-N1-(3-amino-2-hydroxypropyl)-4-(4-(3-hydroxypropyl)piperazin-1-yl)-3-(1H-tetrazol-5-yl)benzene-1,2-disulfonamide] | 5.87 nM | 3.56 nM | 3.07 nM | 7.36 nM | 1.56 µM | 2.00 | 0.78 µM | 0.05 µM | 0.10 µM | 0.78 µM
4 | COC1(CN(C)C)CN(c2ccc(S(=O)(=O)N[C@@H]3CCNC3)c(S(N)(=O)=O)c2-c2nnn[nH]2)C1 [Example 116, 4-{3-[(dimethylamino)methyl]-3-methoxyazetidin-1-yl}-N1-[(3R)-pyrrolidin-3-yl]-3-(1H-tetrazol-5-yl)benzene-1,2-disulfonamide] | 6.97 nM | 4.62 nM | 29.3 nM | 63.9 nM | 3.13 µM | 2.00 | 3.13 µM | 1.56 µM | 1.56 µM | 1.56 µM
5 | COC(=O)C1CCN(c2ccc(S(=O)(=O)N[C@@H]3CCNC3)c(S(N)(=O)=O)c2-c2nn[nH]n2)CCN1.Cl (stereo partly drawn) [Example 164, Methyl 1-(4-(N-((R)-pyrrolidin-3-yl)sulfamoyl)-3-sulfamoyl-2-(2H-tetrazol-5-yl)phenyl)-1,4-diazepane-5-carboxylate hydrochloride] | 0.12 nM | 0.54 nM | 0.63 nM | 0.69 nM | 6.25 µM | 2.00 | 3.13 µM | 0.39 µM | 1.56 µM | 3.13 µM
6 | NC[C@@H](O)CNS(=O)(=O)c1ccc(N2CC[C@H](N)C2)c(-c2nn[nH]n2)c1S(N)(=O)=O [Example 126, N1-((R)-3-amino-2-hydroxypropyl)-4-((S)-3-aminopyrrolidin-1-yl)-3-(2H-tetrazol-5-yl)benzene-1,2-disulfonamide] | 7.7 nM | 124 nM | 200 nM | 32.5 nM | 6.25 µM | 2.00 | 0.78 µM | 1.56 µM | 3.13 µM | 3.13 µM
7 | NC[C@@H](O)CNS(=O)(=O)c1ccc(N2CCC(CNCCO)CC2)c(-c2nn[nH]n2)c1S(N)(=O)=O [Example 123, (R)-N1-(3-amino-2-hydroxypropyl)-4-(4-(((2-hydroxyethyl)amino)methyl)piperidin-1-yl)-3-(2H-tetrazol-5-yl)benzene-1,2-disulfonamide] | 0.25 nM | 6.18 nM | 10.8 nM | 7.51 nM | 1.56 µM | 2.00 | 1.56 µM | 0.39 µM | 0.39 µM | 0.78 µM
8 | NC[C@@H](O)CNS(=O)(=O)c1ccc(N2CCOC(CO)C2)c(-c2nn[nH]n2)c1S(N)(=O)=O (stereo partly drawn) [Example 20, N^1—((R)-3-amino-2-hydroxypropyl)-4-(2-(hydroxymethyl)morpholino)-3-(2H-tetrazol-5-yl)benzene-1,2-disulfonamide] | 0.26 nM | 1.53 nM | 0.77 nM | 0.49 nM | 3.13 µM | 4.00 | 3.13 µM | 1.56 µM | 0.78 µM | 0.78 µM
9 | NCCC(=O)N1CCN(c2ccc(S(=O)(=O)NC[C@H](O)CN)c(S(N)(=O)=O)c2-c2nn[nH]n2)CC1 [Example 145, (R)—N1-(3-amino-2-hydroxypropyl)-4-(4-(3-aminopropanoyl)piperazin-1-yl)-3-(2H-tetrazol-5-yl)benzene-1,2-disulfonamide] | 0.46 nM | 4.7 nM | 1.68 nM | 8.32 nM | 0.78 µM | 1.00 | 1.56 µM | 0.39 µM | 0.78 µM | 0.78 µM
